Data reported in US10375956B2, “Herbicidally active 2-(substituted-phenyl)-cyclopentane-1,3-dione compounds and derivatives thereof” (Syngenta Limited, priority 2013, dated 2019).

Legend:
Type in all cases: in vivo
[1] = tested on: Digitaria sanguinalis (DIGSA); experiment: Biological Example 3 glasshouse assay, post-emergence, various adjuvant systems; conditions: 8 g/ha
Protocol: (§1) Post-emergence foliar spray application, 200 L/ha, usually one or two replicates for the weeds (depending on application rate), and two replicates for soybean.
(§2) Standard warm conditions (tropical), in glasshouse. Specifically, the glasshouse bay conditions are 24° C./18° C. day/night; 16/8 hours light/dark; 65% humidity.
(§3) The herbicidal application takes place at the following growth stages for plants which include inter alia one or more of the following plants (usually the herbicidal application takes place on at least the following plants: DIGSA, ELEIN, SETFA, ZEAMX, GLXMA Nikko, and GLXMA TMG133, and often also either BRADC or BRAPP):
Digitaria sanguinalis (DIGSA)—growth stage 12 or 13
(§4) Each test compound is applied with one of the following adjuvant systems (all percentages are final concentrations in the aqueous spray mixture):
(§5) Adjuvant system 2: 0.5% v/v Hexamoll™ DINCH**, 1.0% v/v AMS (ammonium sulphate) and 12.5% v/v IPA (isopropyl alcohol).
(§6) Adjuvant system 3: 0.5% v/v tris-(2-ethylhexyl)phosphate (“TEHP”), 1.0% v/v AMS (ammonium sulphate) and 12.5% v/v IPA (isopropyl alcohol).
(§7) Seeds of the weed (including volunteer) plants, typically including inter alia Digitaria sanguinalis (DIGSA), Eleusine indica (ELEIN), Setaria faberi (SETFA), Zea mays (ZEAMX, corn), and sometimes also [either Brachiaria decumbens (BRADC) or Brachiaria platyphylla (BRAPP)], are sown in seed trays (troughs) containing clay loam soil (pH 7.0, 2.2% organic matter, “Trough Mix A”); and soybean seed is sown in pots containing the same soil with 3 soybean seedlings per pot. The plants are sprayed with the test herbicide when they reach the growth stages mentioned above.
(§8) The test herbicidal solutions are prepared by mixing the appropriate aliquots of the test substance(s) and one of the adjuvant systems indicated above *** in deionised water to give the desired treatment concentration.
(§9) The herbicidal application is made as a foliar spray, using a tracksprayer. Following the herbicidal application, the plants are watered twice per day for the duration of the test.
(§10) A visual assessment of the % herbicidal damage is made 7 and 14 Days After herbicide Application (DAA) (or, in a minority of cases, 7 and 15 DAA), and the results are recorded as % visual herbicidal damage where 0%=no damage to plants and 100%=plant totally killed.
(§11) Compounds A2 and A7 were tested using the 0.5% v/v Hexamoll™ DINCH™+1.0% v/v AMS+12.5% v/v IPA adjuvant system. Compounds A11, A12, A14, A20 and A21 were tested using the 0.5% v/v tris-(2-ethylhexyl)phosphate (“TEHP”)+1.0% v/v AMS+12.5% v/v IPA adjuvant system.
(§12) The percentages of herbicidal damage/plant control, at 14 Days After herbicide Application (DAA) (or, in some cases, at 15 DAA), for the Compounds tested and for some of the plants tested, were in the following percentage ranges. For the tested compounds, the phytotoxicity results shown herein are generally the average of 2 or 3 repetitions (for the grassy weeds including corn) or the average of 2 repetitions (for soybean for most of the tested compounds). However, for Compound A2 on soybean there was 1 repetion only.

[2] = tested on: Glycine max (GLXMA, soybean) cultivar TMG133 (Roundup Ready glyphosate-tolerant); experiment: as above; conditions: crop
Protocol: as §1, §2, §3
Glycine max (GLXMA, soybean) cultivar “TMG133”—which is Roundup Ready™ glyphosate-tolerant soybean cultivar TMG133 (typically available from Monsanto in Brazil)—growth stage: 1st trifoliate.
as §4, §5, §6, §7, §8, §9, §10, §11, §12
Glycine max (GLXMA, soybean) cultivar “TMG133” is Roundup Ready™ glyphosate-tolerant soybean cultivar TMG133, and is typically available from Monsanto in Brazil.

[3] = tested on: Triticum aestivum (TRZAW, winter wheat); experiment: Test 1 glasshouse assay, post-emergence herbicidal activity; conditions: 312 h, post-emergence (Example 1B Table 2), after 13 days, crop plant, read-out: Percentage phytotoxicity TRZAW
Procedure, shortened: (§13)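 Post-emergence: plants sprayed after 8 days' growth in a glasshouse (24/16 °C day/night, 14 h light, 65% humidity) with compound in acetone/water 50:50 containing 0.5% Tween 20. Phytotoxicity was scored visually 13 days later as percent damage (0 = none, 100 = total).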

[4] = tested on: Lolium perenne (LOLPE); experiment: as above; conditions: 312 h, post-emergence (Example 1B Table 2), after 13 days, read-out: Percentage phytotoxicity LOLPE
Procedure, shortened: as §13

[5] = tested on: Avena fatua (AVEFA); experiment: as above; conditions: 312 h, post-emergence (Example 1B Table 2), after 13 days, read-out: Percentage phytotoxicity AVEFA
Procedure, shortened: as §13

[6] = tested on: Eleusine indica (ELEIN); experiment: Biological Example 3 glasshouse assay, post-emergence, various adjuvant systems; conditions: 8 g/ha
Protocol: as §1, §2, §3
Eleusine indica (ELEIN)—growth stage 12 or 13
as §4, §5, §6, §7, §8, §9, §10, §11, §12

[7] = tested on: Glycine max (GLXMA, soybean) cultivar Nikko; experiment: as above; conditions: crop
Protocol: as §1, §2, §3
Glycine max (GLXMA, soybean) cultivar “Nikko”—growth stage: 1st trifoliate
as §4, §5, §6, §7, §8, §9, §10, §11, §12

[8] = tested on: Zea mays (ZEAMX, maize/corn) cultivar Garland; experiment: as above; conditions: 8 g/ha
Protocol: as §1, §2, §3
Zea mays (ZEAMX, maize/corn, e.g. can occur as volunteer corn) cultivar “Garland”—growth stage 12 or 13
as §4, §5, §6, §7, §8, §9, §10, §11, §12
Zea mays (ZEAMX, maize, corn) is often present as a “volunteer” weed (“volunteer” corn) in fields where it was planted as a crop in preceding growing season(s) and where the present field crop is not corn.

[9] = tested on: Brachiaria decumbens (BRADC); experiment: as above; conditions: 8 g/ha
Protocol: as §1, §2, §3
Brachiaria decumbens (BRADC)—growth stage (GS) 12 or 13 (or GS 12)—or, if BRADC is not used, then sometimes Brachiaria platyphylla (BRAPP)—growth stage 12 or 13
as §4, §5, §6, §7, §8, §9, §10
Compounds A2 and A7 were tested using the 0.5% v/v Hexamoll™ DINCH™+1.0% v/v AMS+12.5% v/v IPA adjuvant system. Compounds A11, A12, A14, A20 and A21 were tested using the 0.5% v/v tris-(2-ethylhexyl)phosphate (“TEHP”)+1.0% v/v AMS+12.5% v/v IPA adjuvant system. […]

[10] = 14 or 15 DAA, adjuvant 0.5% v/v TEHP + 1.0% v/v AMS + 12.5% v/v IPA
[11] = 240 g/ha, 14 or 15 DAA, adjuvant 0.5% v/v TEHP + 1.0% v/v AMS + 12.5% v/v IPA
[12] = 14 DAA, adjuvant 0.5% v/v Hexamoll DINCH + 1.0% v/v AMS + 12.5% v/v IPA
[13] = 120 g/ha, 14 DAA, adjuvant 0.5% v/v Hexamoll DINCH + 1.0% v/v AMS + 12.5% v/v IPA

`C#CCC1CC(=O)C(c2c(Cl)cc(-c3ccc(F)cc3F)cc2OC)C1=O` (stereo not drawn) [Compound A12] was tested, and the “percentage control of Digitaria sanguinalis” value [1, 10] was 98.5%, the “percentage phytotoxicity on Glycine max cultivar TMG133” value [2, 11] was 15% and the plant injury at 62.5 g/ha [3] was 70%. It also gave a plant injury at 250 g/ha [3] of 80%, a pest or weed control at 62.5 g/ha [4] of 70% and a pest or weed control at 250 g/ha [4] of 100%. For the same molecule, the pest or weed control at 62.5 g/ha [5] was 60%, the pest or weed control at 250 g/ha [5] was 100% and the “percentage control of Eleusine indica” value [6, 10] was 90%. For the same molecule, the “percentage phytotoxicity on Glycine max cultivar Nikko” value [7, 11] was 15%, the “percentage control of Zea mays” value [8, 10] was 100% and the “percentage control of Brachiaria decumbens (BRADC)” value [9, 10] was 99%.
With `C#CCC1CC(=O)C(c2c(C)cc(-c3ccc(Cl)cn3)cc2C)C1=O` (stereo not drawn) [Compound A2] the “percentage control of (phytotoxicity on) Digitaria sanguinalis (DIGSA)” value [1, 12] was 90%, the “percentage phytotoxicity on Glycine max cultivar TMG133” value [2, 13] was 20% and the plant injury at 62.5 g/ha [3] was 70%. For the same molecule, the plant injury at 250 g/ha [3] was 90%, the pest or weed control at 62.5 g/ha [4] was 70% and the pest or weed control at 250 g/ha [4] was 100%. For the same molecule, the pest or weed control at 62.5 g/ha [5] was 80%, the pest or weed control at 250 g/ha [5] was 100% and the “percentage control of (phytotoxicity on) Eleusine indica (ELEIN)” value [6, 12] was 85%. For the same molecule, the “percentage phytotoxicity on Glycine max cultivar Nikko” value [7, 13] was 10%, the “percentage control of (phytotoxicity on) Zea mays (ZEAMX, maize, corn)” value [8, 12] was 10% and the “percentage control of (phytotoxicity on) Brachiaria decumbens (BRADC)” value [9, 12] was 50%.
